This is an account of results in ChEMBL document CHEMBL3611970, “Synthesis and evaluation of isatin-β-thiosemicarbazones as novel agents against antibiotic-resistant Gram-positive bacterial species” (2015).

Holding throughout (type): functional
The test system of assay [1] is Staphylococcus aureus. Description: Antimicrobial activity against methicillin-resistant Staphylococcus aureus Chaoyang clinical isolate after 16 hrs by broth microdilution method. In general terms: Broth dilution looks for growth in wells or tubes with falling amounts of substance.
The subject of assay [2] is Staphylococcus aureus. In words: Antimicrobial activity against Staphylococcus aureus ATCC 6538 after 16 hrs by broth microdilution method. The following applies: ATCC 6538, 16 h.
Assay [3] concerns Bacillus spizizenii. In words: Antimicrobial activity against Bacillus subtilis ATCC 6633 after 16 hrs by broth microdilution method. The following applies: ATCC 6633, 16 h.
Assay [4] deals with Enterococcus faecalis. Description: Antimicrobial activity against vancomycin-susceptible Enterococcus faecalis after 16 hrs by broth microdilution method.
Assay [5] concerns Enterococcus faecalis. Description: Antimicrobial activity against Enterococcus faecalis VRE-309 after 16 hrs by broth microdilution method. The following applies: VRE-309, 16 h.
The test system of assay [6] is Pseudomonas aeruginosa. In words: Antimicrobial activity against Pseudomonas aeruginosa PAO1 after 16 hrs by broth microdilution method. The following applies: PAO1, 16 h.
Assay [7] has as its system Klebsiella pneumoniae. In words: Antimicrobial activity against Klebsiella pneumoniae KP-249 clinical isolate after 16 hrs by broth microdilution method. The following applies: KP-249, 16 h.
Assay [8] deals with Staphylococcus aureus. Description: Antimicrobial activity against methicillin-resistant Staphylococcus aureus 309-4 clinical isolate after 16 hrs by broth microdilution method. Particulars: 309-4, 16 h.
In assay [9] the test system is Staphylococcus aureus. Description: Antimicrobial activity against methicillin-resistant Staphylococcus aureus 6281 clinical isolate after 16 hrs by broth microdilution method. The following applies: Staphylococcus aureus, 6281, 16 h.
Assay [10] relates to Staphylococcus aureus. In words: Antimicrobial activity against methicillin-resistant Staphylococcus aureus 309-8 clinical isolate after 16 hrs by broth microdilution method. Particulars: 309-8, 16 h.
For assay [11], the system named is Staphylococcus aureus. In words: Antimicrobial activity against methicillin-resistant Staphylococcus aureus 6-42 clinical isolate after 16 hrs by broth microdilution method. Particulars: 6-42, 16 h.
Assay [12] relates to Staphylococcus aureus. Description: Antimicrobial activity against methicillin-resistant Staphylococcus aureus 8-21 clinical isolate after 16 hrs by broth microdilution method. Particulars: 8-21, 16 h.
The subject of assay [13] is Staphylococcus aureus. Description: Antimicrobial activity against methicillin-resistant Staphylococcus aureus 309-3 clinical isolate after 16 hrs by broth microdilution method. The following applies: 309-3, 16 h.
Assay [14] concerns Staphylococcus aureus. Description: Antimicrobial activity against methicillin-resistant Staphylococcus aureus 309-1 clinical isolate after 16 hrs by broth microdilution method. The following applies: 309-1, 16 h.
The subject of assay [15] is Staphylococcus aureus. In words: Antimicrobial activity against methicillin-resistant Staphylococcus aureus 309-7 clinical isolate after 16 hrs by broth microdilution method. The following applies: 309-7, 16 h.
Assay [16] concerns Staphylococcus aureus. Description: Antimicrobial activity against methicillin-resistant Staphylococcus aureus 8-24 clinical isolate after 16 hrs by broth microdilution method. The following applies: 8-24, 16 h.
Assay [17] has as its system Staphylococcus aureus. In words: Antimicrobial activity against methicillin-resistant Staphylococcus aureus 309-6 clinical isolate after 16 hrs by broth microdilution method. The following applies: 309-6, 16 h.

Converted amounts (≈) assume the structure as drawn. Where only a bound is given, the exact number is not on record here.

Turning to `O=C1Nc2c(I)cccc2/C1=N/NC(=S)Nc1ccccc1F`, the MIC (commonly the smallest concentration in the dilution series that meets the test's criterion for growth inhibition) is 0.78 µg/mL (≈ 1.77 µM) in [1]; 3.12 µg/mL (≈ 7.09 µM) in [2]; at most 0.78 µg/mL in assay [3]; 12.5 µg/mL (≈ 28.4 µM) in assay [4]; 6.25 µg/mL (≈ 14.2 µM) in assay [5]; over 100 µg/mL in assay [6]. Moreover, the minimal inhibitory concentration (MIC) in assay [7] is over 100 µg/mL; in assay [8] it was 1.56 µg/mL (≈ 3.54 µM); in [9], 6.25 µg/mL (≈ 14.2 µM); in assay [10] it was 1.56 µg/mL (≈ 3.54 µM); in [11], 0.78 µg/mL (≈ 1.77 µM); in assay [12], 1.56 µg/mL (≈ 3.54 µM). Besides, the MIC worked out at 3.12 µg/mL (≈ 7.09 µM) in [13]; 1.56 µg/mL (≈ 3.54 µM) in assay [14]; 0.78 µg/mL (≈ 1.77 µM) in assay [15]; 1.56 µg/mL (≈ 3.54 µM) in [16]; 3.12 µg/mL (≈ 7.09 µM) in assay [17].
Turning to `COc1ccccc1NC(=S)N/N=C1\C(=O)Nc2c(I)cccc21`, the minimal inhibitory concentration (MIC) is 6.25 µg/mL (≈ 13.8 µM) in [1]; over 100 µg/mL in assay [2]; 1.56 µg/mL (≈ 3.45 µM) in assay [3]; over 100 µg/mL in assay [4]; over 100 µg/mL in assay [5]; over 100 µg/mL in assay [6]. Moreover, the MIC was over 100 µg/mL in [7]; 12.5 µg/mL (≈ 27.6 µM) in [8]; 25 µg/mL (≈ 55.3 µM) in [9]; 12.5 µg/mL (≈ 27.6 µM) in assay [10]; 6.25 µg/mL (≈ 13.8 µM) in [11]; 12.5 µg/mL (≈ 27.6 µM) in assay [12]. The minimal inhibitory concentration (MIC) in assay [13] was 25 µg/mL (≈ 55.3 µM); in assay [14], 12.5 µg/mL (≈ 27.6 µM); in [15], 6.25 µg/mL (≈ 13.8 µM); in assay [16], 12.5 µg/mL (≈ 27.6 µM); in assay [17], 25 µg/mL (≈ 55.3 µM).
For the molecule `Cc1ccccc1NC(=S)N/N=C1\C(=O)Nc2c(I)cccc21`, the MIC in assay [1] is 0.78 µg/mL (≈ 1.79 µM); in [2], 3.12 µg/mL (≈ 7.15 µM); in assay [3] it was at most 0.78 µg/mL; in assay [4], 12.5 µg/mL (≈ 28.7 µM); in assay [5] it was 6.25 µg/mL (≈ 14.3 µM); in [6], over 100 µg/mL. Also, the MIC was over 100 µg/mL in [7]; 1.56 µg/mL (≈ 3.58 µM) in assay [8]; 6.25 µg/mL (≈ 14.3 µM) in assay [9]; 3.12 µg/mL (≈ 7.15 µM) in assay [10]; 0.78 µg/mL (≈ 1.79 µM) in assay [11]; 1.56 µg/mL (≈ 3.58 µM) in assay [12]. Besides, the minimal inhibitory concentration (MIC) in assay [13] amounted to 3.12 µg/mL (≈ 7.15 µM); in assay [14] it was 3.12 µg/mL (≈ 7.15 µM); in assay [15] it was 1.56 µg/mL (≈ 3.58 µM); in [16], 3.12 µg/mL (≈ 7.15 µM); in assay [17], 6.25 µg/mL (≈ 14.3 µM).
In the case of `O=C1Nc2c(I)cccc2/C1=N/NC(=S)Nc1cccc(Cl)c1`, the MIC is 0.78 µg/mL (≈ 1.71 µM) in assay [1]; 3.12 µg/mL (≈ 6.83 µM) in assay [2]; at most 0.78 µg/mL in assay [3]; 12.5 µg/mL (≈ 27.4 µM) in assay [4]; 3.12 µg/mL (≈ 6.83 µM) in assay [5]; over 100 µg/mL in [6]. Further, the minimal inhibitory concentration (MIC) in assay [7] was over 100 µg/mL; in [8] it was 1.56 µg/mL (≈ 3.42 µM); in [9], 6.25 µg/mL (≈ 13.7 µM); in [10], 6.25 µg/mL (≈ 13.7 µM); in assay [11], 3.12 µg/mL (≈ 6.83 µM); in assay [12], 6.25 µg/mL (≈ 13.7 µM). For the same molecule, the MIC in assay [13] stood at 3.12 µg/mL (≈ 6.83 µM); in [14] it was 3.12 µg/mL (≈ 6.83 µM); in [15], 3.12 µg/mL (≈ 6.83 µM); in [16], 3.12 µg/mL (≈ 6.83 µM); in assay [17], 6.25 µg/mL (≈ 13.7 µM).
For the molecule `COc1cccc(NC(=S)N/N=C2\C(=O)Nc3c(I)cccc32)c1`, the MIC in [1] was 1.56 µg/mL (≈ 3.45 µM); in assay [2], over 100 µg/mL; in assay [3], 1.56 µg/mL (≈ 3.45 µM); in assay [4], over 100 µg/mL; in assay [5], 25 µg/mL (≈ 55.3 µM); in assay [6], over 100 µg/mL. The MIC in assay [7] is over 100 µg/mL; in [8], 6.25 µg/mL (≈ 13.8 µM); in assay [9], 25 µg/mL (≈ 55.3 µM); in [10], 25 µg/mL (≈ 55.3 µM); in [11] it was 3.12 µg/mL (≈ 6.9 µM); in assay [12] it was 6.25 µg/mL (≈ 13.8 µM). In addition, the MIC in assay [13] stood at 12.5 µg/mL (≈ 27.6 µM); in assay [14] it was 6.25 µg/mL (≈ 13.8 µM); in [15], 3.12 µg/mL (≈ 6.9 µM); in [16], 6.25 µg/mL (≈ 13.8 µM); in [17], 25 µg/mL (≈ 55.3 µM).
